The numbers were not newly measured in paper PMC10712729, “A Phase I Trial of the Dual MET Kinase/OCT-2 Inhibitor OMO-1 in Metastatic Solid Malignancies Including MET Exon 14 Mutated Lung Cancer” (The Oncologist, 2023), which cites them from elsewhere.

On the set-up of data set [1]: method as in PMID 32469185, PMID 32877583. The note with it: cited from earlier work.
The subject of the next data set is METex14 mutated NSCLC. Also noted: method as in PMID 32469185, PMID 32877583. The note with it: METex14 mutated NSCLC ref 9, 10; cited from earlier work.
For data set [2] the following is noted: in vivo; cited from earlier work.

Turning to `CNC(=O)c1ccc(-c2cnc3ncc(Cc4ccc5ncccc5c4)n3n2)cc1F` [capmatinib], in data set [1], the “diarrhea, all grades” value is 17%; the “nausea, all grades” value is reported as 46%; the “vomiting, all grades” value is 26%. In the data set with METex14 mutated NSCLC, the median response duration was 12.6 months and the object response rates is listed as 68%.

`CN1CCC(COc2cnc(-c3cccc(Cn4nc(-c5cccc(C#N)c5)ccc4=O)c3)nc2)CC1` [tepotinib]: in data set [1], the “diarrhea, all grades” value is 22%; the “nausea, all grades” value was 26%; the “vomiting, all grades” value was 6%. In the data set on METex14 mutated NSCLC, the median response duration is recorded as 10.8 months and the object response rates is on record as 43%.

On to `Cn1cc(-c2ccc3nnc(C(F)(F)c4ccc5ncccc5c4)n3n2)cn1` [JNJ-38877605], for which, in data set [2], the renal toxicity entry is reported as “renal toxic properties”.
